What was measured:
Human recombinant 5-HT1A = biological target: T1, Human recombinant 5-HT1A (Homo sapiens, UniProt P08908); assay: Serotonin 5HT1A radioligand binding assay; details: [3H]-8-OH-DPAT
T1 construct: expressed in transfected cells
T1 sequence (P08908 1-422): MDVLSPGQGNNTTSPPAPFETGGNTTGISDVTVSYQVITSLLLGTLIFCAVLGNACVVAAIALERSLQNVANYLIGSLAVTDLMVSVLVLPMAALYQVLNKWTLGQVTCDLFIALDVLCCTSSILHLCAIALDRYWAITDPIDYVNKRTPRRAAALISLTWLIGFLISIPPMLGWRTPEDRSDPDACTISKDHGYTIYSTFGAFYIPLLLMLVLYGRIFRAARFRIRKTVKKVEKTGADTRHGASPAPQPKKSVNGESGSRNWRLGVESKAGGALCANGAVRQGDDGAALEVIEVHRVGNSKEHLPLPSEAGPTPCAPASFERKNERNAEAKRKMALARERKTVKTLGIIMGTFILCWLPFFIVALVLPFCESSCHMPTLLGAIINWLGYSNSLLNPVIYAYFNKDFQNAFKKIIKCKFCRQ
Description: Serotonin, 5HT1A Radioligand Binding Assay
Receptor Source: Human recombinant 5-HT1A expressed mammalian cells
Radioligand: [^3H]-8-OH-DPAT (221 Ci/mmol)
Control Compound: 8-OH-DPAT

[1] = biological target: Human Cortex or Human recombinant 5-HT2A (Homo sapiens, UniProt P28223); assay: Serotonin 5HT2A radioligand binding assay; details: [3H]-Ketanserin
Chain of Human Cortex or Human recombinant 5-HT2A (P28223 whole entry): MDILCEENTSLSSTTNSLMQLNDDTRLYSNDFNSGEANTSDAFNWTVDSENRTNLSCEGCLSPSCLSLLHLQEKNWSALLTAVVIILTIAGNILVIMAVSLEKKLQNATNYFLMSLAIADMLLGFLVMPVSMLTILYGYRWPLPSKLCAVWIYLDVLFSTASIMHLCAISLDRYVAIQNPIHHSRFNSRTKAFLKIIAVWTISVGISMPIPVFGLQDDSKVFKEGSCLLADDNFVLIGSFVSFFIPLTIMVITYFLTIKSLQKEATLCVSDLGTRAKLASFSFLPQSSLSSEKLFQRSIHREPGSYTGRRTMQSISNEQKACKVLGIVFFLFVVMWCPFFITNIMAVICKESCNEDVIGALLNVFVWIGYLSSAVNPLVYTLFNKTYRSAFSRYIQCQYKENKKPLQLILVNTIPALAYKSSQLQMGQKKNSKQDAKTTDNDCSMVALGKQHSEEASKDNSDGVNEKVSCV

With O=C1COc2ccc(OCCCCN3CCN(c4cccc(Cl)c4Cl)CC3)cc2N1 [Compound A, 6-(4-(4-(2,3-dichlorophenyl)piperazin-1-yl)butoxy)-2H-benzo[b][1,4]oxazin-3(-4H)-one] the Ki (Human recombinant 5-HT1A) was 0.65 nM and the “Ki, Serotonin 5-HT2A” value [1] was 111 nM.

Reference: patent publication US20180071298A1, “METHODS FOR TREATING ALZHEIMER'S DISEASE” (Reviva Pharmaceuticals, Inc., priority 2015, published 2018)
